According to ChEMBL document CHEMBL2380228, “Nucleotide competing reverse transcriptase inhibitors: discovery of a series of non-basic benzofurano[3,2-d]pyrimidin-2-one derived inhibitors” (Bioorg Med Chem Lett, 2013):
pEC50, pIC50: −log10 of the molar value. ≈ marks a conversion by molar mass, not a printed value.

How the values were obtained:
[1] = Inhibition of HIV-1 BH10 reverse transcriptase using poly(rA)/oligo(dT)15 as substrate after 60 mins by plate reader analysis; design: species or system Human immunodeficiency virus type 1 BH10
[2] = Solubility of the compound in phosphate buffer at pH 6.8 after 24 hrs at 25 degC by LC-MS analysis; type: physicochemical
[3] = Permeability from apical to basolateral side of human Caco2 cells; type: ADME, cell-based; settings: Caco-2, read-out: permeability
[4] = Cytotoxicity against human C8166-LTR-Luc cells after 3 days by MTT assay; type: cell-based
[5] = Solubility of the compound in phosphate buffer at pH 2.0 after 24 hrs at 25 degC by LC-MS analysis; type: physicochemical
[6] = Lipophilicity, log D of the compound in n-octanol buffer at 0.5 mg after 2 to 24 hrs by LC-MS analysis; type: physicochemical
[7] = system: Human immunodeficiency virus 1; assay: Antiviral activity against wild type HIV1-infected human C8166 cells after 1.5 hrs by luciferase reporter gene assay; type: functional, organism-based; settings: Human immunodeficiency virus 1, C8166, 1.5 h
[8] = Clearance in human liver microsomes at 1 uM by LC-MS/MS analysis relative to hepatic blood flow; type: ADME, Microsome; settings: read-out: CLH
[9] = system: Human immunodeficiency virus type 1 BH10; assay: Inhibition of HIV-1 BH10 reverse transcriptase using poly(rA)/oligo(dT)15 as substrate at > 365 nM after 60 mins by plate reader analysis
[10] = system: Human immunodeficiency virus type 1 BH10; assay: Inhibition of HIV-1 BH10 reverse transcriptase using poly(rA)/oligo(dT)15 as substrate at > 4700 nM after 60 mins by plate reader analysis
[11] = system: Human immunodeficiency virus type 1 BH10; assay: Inhibition of HIV-1 BH10 reverse transcriptase using poly(rA)/oligo(dT)15 as substrate at > 1100 nM after 60 mins by plate reader analysis
[12] = Cytotoxicity against human C8166-LTR-Luc cells assessed as inhibition of cell viability at > 3.6 uM after 3 days by MTT assay; type: cell-based; settings: read-out: INH
[13] = system: Human immunodeficiency virus type 1 BH10; assay: Inhibition of HIV-1 BH10 reverse transcriptase using poly(rA)/oligo(dT)15 as substrate at > 685 nM after 60 mins by plate reader analysis
[14] = Clearance in rat liver microsomes at 1 uM by LC-MS/MS analysis relative to hepatic blood flow; type: ADME, Microsome; settings: read-out: CLH

Structure (SMILES) | pIC50 [1] | Papp A→B [3] [×10⁻⁶ cm/s] | CC50 at 72 h [4] [nM] | pEC50 [7] | hepatic extraction ratio at 1 µM [8] | other results
COCCn1c(=O)nc(-c2ccccc2)c2oc3ccc(-c4ccc(CN(C)C)cc4)cc3c21 | 5.63 |  |  |  |  | 
COC[C@@H](C)Cn1c(=O)nc(-c2ccccc2)c2oc3ccc(-c4ccc(CN(C)C)cc4)cc3c21 | 6.20 |  |  |  |  | 
CNc1ccc(-c2nc(=O)n(CCC3CCCO3)c3c2oc2ccc(-c4cnn(C)c4)cc23)cn1 (racemic) | 8.82 | 3.1 | 3800 | 7.89 | 0.61 | solubility at 24 h [2]: > 984 µg/mL; solubility at 24 h [5]: > 1000 µg/mL; logD [6]: 3.4
COCCCn1c(=O)nc(-c2ccc(N3CCNCC3)cc2)c2oc3ccc(Cl)cc3c21 | 8.77 | 0.3 | 2700 | 7.60 | 0.28 | 
CN(C)Cc1ccc(-c2ccc3oc4c(-c5ccccc5)nc(=O)n(-c5ccccc5)c4c3c2)cc1 | 6.61 |  |  |  |  | 
COCCCn1c(=O)nc(-c2ccc(N3CCN(CCOC)CC3)nc2)c2oc3ccc(Cl)cc3c21 | 8.10 | 12 |  | 7.25 | 0.78 | 
CN(C)Cc1ccc(-c2ccc3oc4c(-c5ccccc5)nc(=O)n(CCCc5ccccc5)c4c3c2)cc1 | < 6.44 |  |  |  |  | inhibition [9]: 25%
CCn1c(=O)nc(-c2ccccc2)c2oc3ccc(-c4ccc(CN(C)C)cc4)cc3c21 | 6.05 |  |  |  |  | 
CN(C)Cc1ccc(-c2ccc3oc4c(-c5ccccc5)nc(=O)n(-c5ccc([N+](=O)[O-])cc5)c4c3c2)cc1 | 8.77 |  |  |  |  | 
Cc1ccc(-n2c(=O)nc(-c3ccccc3)c3oc4ccc(-c5ccc(CN(C)C)cc5)cc4c32)cc1C#N | 8.14 |  |  |  |  | 
CNc1ccc(-c2nc(=O)n(CC[C@@H]3CCCO3)c3c2oc2ncc(-c4cnn(C)c4)cc23)cn1 |  |  |  |  |  | solubility at 24 h [2]: > 928 µg/mL; solubility at 24 h [5]: > 844 µg/mL
COC[C@H](C)Cn1c(=O)nc(-c2ccccc2)c2oc3ccc(-c4ccc(CN(C)C)cc4)cc3c21 | 6.71 |  |  |  |  | 
COCCCCn1c(=O)nc(-c2ccccc2)c2oc3ccc(-c4ccc(CN(C)C)cc4)cc3c21 | 7.07 |  |  |  |  | 
CN(C)Cc1ccc(-c2ccc3oc4c(-c5ccccc5)nc(=O)n(CCCC(=O)O)c4c3c2)cc1 | < 5.33 |  |  |  |  | inhibition [10]: 46%
CCOC(=O)CCCn1c(=O)nc(-c2ccccc2)c2oc3ccc(-c4ccc(CN(C)C)cc4)cc3c21 | < 5.96 |  |  |  |  | inhibition [11]: 14%
COCCCn1c(=O)nc(-c2ccc(N3CCN(C(C)C)CC3)cc2)c2oc3ccc(Cl)cc3c21 | 8.04 | 2.7 | 2300 | 7.46 | 0.51 | 
COCCCn1c(=O)nc(-c2ccc(N3CCN(CCOC)CC3)cc2)c2oc3ccc(Cl)cc3c21 | 8.00 | 8 | > 4200 | 6.89 | 0.61 | 

Structure (SMILES) | pIC50 [1] | Papp A→B [3] [×10⁻⁶ cm/s] | CC50 at 72 h [4] [nM] | pEC50 [7] | hepatic extraction ratio at 1 µM [8] | other results
COCCCn1c(=O)nc(-c2ccccc2)c2oc3ccc(-c4ccc(CN(C)C)cc4)cc3c21 | 7.41 |  |  |  |  | 
CC(C)Cn1c(=O)nc(-c2ccccc2)c2oc3ccc(-c4ccc(CN(C)C)cc4)cc3c21 | 6.18 |  |  |  |  | 
CCCCn1c(=O)nc(-c2ccccc2)c2oc3ccc(-c4ccc(CN(C)C)cc4)cc3c21 | 7.38 |  |  |  |  | 
CCCCCn1c(=O)nc(-c2ccc(NC)nc2)c2oc3ccc(-c4cnn(C)c4)cc3c21 | 8.70 | 9.8 | 4000 | 7.74 | 0.81 | solubility at 24 h [2]: 0.27 µg/mL (≈ 0.61 µM); solubility at 24 h [5]: > 1000 µg/mL; logD [6]: 4.7
COCCCn1c(=O)nc(-c2ccc(N3CCN(C4CC4)CC3)cc2)c2oc3ccc(Cl)cc3c21 | 7.89 | 8.9 | > 3600 | 6.54 | 0.52 | cytotoxicity at 72 h [12]: 20%
COCCCn1c(=O)nc(-c2ccc(N3CCN(C(C)C)CC3)nc2)c2oc3ccc(Cl)cc3c21 | 8.52 | 2.6 | > 3200 | 7.43 | 0.59 | 
CCCn1c(=O)nc(-c2ccccc2)c2oc3ccc(-c4ccc(CN(C)C)cc4)cc3c21 | < 6.16 |  |  |  |  | inhibition [13]: 45%
CC(C)CCCn1c(=O)nc(-c2ccccc2)c2oc3ccc(-c4ccc(CN(C)C)cc4)cc3c21 | 7.26 |  |  |  |  | 
CCNCC(=O)Nc1ccc(-c2nc(=O)n(CCOC)c3c2oc2ccc(-c4ccc5c(c4)CCN(C)C5)cc23)cc1 | 8.40 | < 0.1 | 4100 | 7.52 | 0.29 | hepatic extraction ratio at 1 µM [14]: 0.11
CCCCCn1c(=O)nc(-c2ccccc2)c2oc3ccc(-c4ccc(CN(C)C)cc4)cc3c21 | 7.57 |  |  |  |  | 
CNc1ccc(-c2nc(=O)n(CC[C@H]3CCCO3)c3c2oc2ncc(-c4cnn(C)c4)cc23)cn1 |  |  |  |  |  | solubility at 24 h [2]: 1.2 µg/mL (≈ 2.54 µM); solubility at 24 h [5]: > 871 µg/mL
COCCCn1c(=O)nc(-c2ccc(N3CCN(C)CC3)nc2)c2oc3ccc(-c4cnn(C)c4)cc3c21 | 8.52 | 0.4 | > 21700 | 8.22 | 0.67 | solubility at 24 h [2]: > 1000 µg/mL; solubility at 24 h [5]: > 1000 µg/mL; logD [6]: 3
CCNCC(=O)Nc1ccc(-c2nc(=O)n(CCCOC)c3c2oc2ccc(Cl)cc23)cc1 | 8.55 | < 0.1 | > 8600 | 7.48 | 0.46 | 
CNc1ccc(-c2nc(=O)n(CCCOC)c3c2oc2ccc(-c4cnn(C)c4)cc23)cn1 | 8.40 | 1.6 | > 17000 | 6.83 | 0.5 | solubility at 24 h [2]: > 1000 µg/mL; solubility at 24 h [5]: > 1000 µg/mL
CC(C)n1c(=O)nc(-c2ccccc2)c2oc3ccc(-c4ccc(CN(C)C)cc4)cc3c21 | 6.10 |  |  |  |  | 
CN(C)Cc1ccc(-c2ccc3oc4c(-c5ccccc5)nc(=O)n(C)c4c3c2)cc1 | 6.19 |  |  |  |  | 
CC(C)CCn1c(=O)nc(-c2ccccc2)c2oc3ccc(-c4ccc(CN(C)C)cc4)cc3c21 | 6.72 |  |  |  |  | 
